Numbered stars: 1 amine (or outer) side, 2 acyl side, 3 side chain; on linkers, the order of the positions; unused ones are H or OH. Bridge positions count the residues as written; N and C are the ends. Peptide text beside a SMILES is read from it. * marks the point of attachment. X1 = O=C(O)CN1CCN(CC(=O)O)CCN(CC(=O)N2CCN(Cc3cc(C[*:1])cc(C[*:2])c3)CC2)CCN(CC(=O)O)CC1; Hexanoyl = CCCCCC(=O)*
Assay: Plasma stability
Type: in vitro ADME
Conditions: 10 µM, 37°C, UHPLC-QTOF MS with internal standard
Protocol: FAP-2287 was incubated in 50 µL of plasma with 3.8% sodium citrate as anticoagulant at a concentration of 10 µM. After 1, 2, 4, and 24 hours incubation at 37°C a suitable internal standard was added. FAP-2287 with plasma proteins were precipitated using 250 µL of a precipitation agent consisting of 1% trifluoroacetic acid in acetonitrile. Precipitation was carried out at room temperature for 30 minutes. After centrifugation at 18,200 relative centrifugal force (rcf) for 5 minutes, 100 µL of the supernatant was mixed with 100 µL of 1% formic acid.
A nonincubated plasma sample spiked with 10 µM sample concentration was prepared in the same way and was used as the reference. A pure plasma sample was incubated for 24 hours as a blank sample. A further pure plasma sample was incubated for 24 hours, processed as described above and spiked directly before analysis to determine the recovery. The samples were analyzed using an Agilent 1290 UHPLC system coupled to an Agilent 6530 QTOF mass spectrometer.
For the quantitative data analysis, the Agilent Quantitative Analysis B.08.00 software (RRID:SCR_015040) was used. The ion currents of the triply charged proton adducts of the compounds were extracted with a mass window of ±50 parts per million and the chromatographic peak was integrated. The concentration of the compound was determined by external matrix calibration with internal standard using 6 calibration samples (1, 2.5, 5, 7.5, 10, and 12.5 µM). A quadratic regression was performed. Carryover was determined by analyzing the blank sample directly after the highest calibration sample and comparing the determined peak areas. Recovery was calculated as the ratio between the spiked concentration of the recovery sample and the concentration calculated from the peak area of this sample.

CCCCCC(=O)N[C@H]1CSCc2cc(cc(CN3CCN(C(=O)CN4CCN(CC(=O)O)CCN(CC(=O)O)CCN(CC(=O)O)CC4)CC3)c2)CSC[C@@H](C(=O)N[C@@H](CC(=O)O)C(N)=O)NC(=O)[C@H](Cc2ccccc2)NC(=O)[C@H](CCC(N)=O)NC(=O)[C@H]([C@@H](C)O)NC(=O)[C@@H]2CCCN2C(=O)[C@@H]2CCCN2C1=O [FAP-2287] (Hexanoyl-CPPTQFCD-NH2; linker 1-7 via X1)
Plasma Stability (24 h) Human Plasma (human plasma with 3.8% sodium citrate): > 80%
Plasma Stability (24 h) Mouse Plasma (mouse plasma with 3.8% sodium citrate): > 80%
